The source made the active and inactive calls. No cut-off for these calls is given here.
Tests used:
HeLa [1] = experiment: Induction of apoptosis in human HeLa cells assessed as late apoptotic cells at 0.4 uM after 24 hrs by Annexin-V-FITC/propidium iodide staining based flow cytometry (reference value: 3.1%); type: functional
HeLa [2] = experiment: Cell cycle arrest in human HeLa cells assessed as accumulation at G1 phase at 0.5 uM after 36 hrs by propidium iodide staining based flow cytometry (reference value: 79.19%); type: functional
HeLa [3] = experiment: Induction of apoptosis in human HeLa cells assessed as early apoptotic cells at 0.2 uM after 24 hrs by Annexin-V-FITC/propidium iodide staining based flow cytometry (reference value: 2.41%); type: functional
HeLa [4] = experiment: Cell cycle arrest in human HeLa cells assessed as accumulation at G2/M phase at 0.5 uM after 12 hrs by propidium iodide staining based flow cytometry (reference value: 8.14%); type: functional
[5] = Antiproliferative activity against human 293T cells measured after 24 hrs by MTT assay; type: cell-based; conditions: 293T (HEK-293T) cells
HeLa [6] = experiment: Cell cycle arrest in human HeLa cells assessed as accumulation at G2/M phase at 0.4 uM after 12 hrs by propidium iodide staining based flow cytometry (reference value: 2.15%); type: functional
HeLa [7] = experiment: Cell cycle arrest in human HeLa cells assessed as accumulation at S phase at 0.5 uM after 12 hrs by propidium iodide staining based flow cytometry (reference value: 33.78%); type: functional
HeLa [8] = experiment: Cell cycle arrest in human HeLa cells assessed as accumulation at G2/M phase at 0.5 uM by propidium iodide staining based flow cytometry; type: functional; conditions: TDE = time-dependent effect
HeLa [9] = experiment: Induction of apoptosis in human HeLa cells assessed as early apoptotic cells at 0.5 uM after 36 hrs by Annexin-V-FITC/propidium iodide staining based flow cytometry (reference value: 6.02%); type: functional
HeLa [10] = experiment: Induction of apoptosis in human HeLa cells assessed as necrotic cells at 0.1 uM after 24 hrs by Annexin-V-FITC/propidium iodide staining based flow cytometry (reference value: 0.084%); type: functional
HeLa [11] = experiment: Cell cycle arrest in human HeLa cells assessed as accumulation at G1 phase at 0.1 uM after 24 hrs by propidium iodide staining based flow cytometry (reference value: 85.81%); type: functional
HeLa [12] = experiment: Cell cycle arrest in human HeLa cells assessed as accumulation at G1 phase at 0.4 uM after 12 hrs by propidium iodide staining based flow cytometry (reference value: 85.81%); type: functional
HeLa [13] = experiment: Induction of apoptosis in human HeLa cells assessed as viable cells at 0.2 uM after 24 hrs by Annexin-V-FITC/propidium iodide staining based flow cytometry (reference value: 94.4%); type: functional; conditions: read-out: Activity
HeLa [14] = experiment: Inhibition of microtubule polymerization in human HeLa cells assessed as effect on microtubule organization at 0.2 uM after 24 hrs by DAPI staining based confocal microscopic analysis; type: cell-based
HeLa [15] = experiment: Induction of apoptosis in human HeLa cells assessed as viable cells at 0.1 uM after 24 hrs by Annexin-V-FITC/propidium iodide staining based flow cytometry (reference value: 94.4%); type: functional; conditions: read-out: Activity
HeLa [16] = experiment: Induction of apoptosis in human HeLa cells assessed as necrotic cells at 0.4 uM after 24 hrs by Annexin-V-FITC/propidium iodide staining based flow cytometry (reference value: 0.084%); type: functional
MCF7 = experiment: Antiproliferative activity against human MCF7 cells measured after 24 hrs by MTT assay; type: functional, cell-based; conditions: MCF7, 24 h
HeLa [17] = experiment: Antiproliferative activity against human HeLa cells measured after 24 hrs by MTT assay; type: functional, cell-based
HeLa [18] = experiment: Induction of apoptosis in human HeLa cells assessed as viable cells at 0.5 uM after 24 hrs by Annexin-V-FITC/propidium iodide staining based flow cytometry (reference value: 91%); type: functional; conditions: read-out: Activity
HeLa [19] = experiment: Induction of apoptosis in human HeLa cells assessed as necrotic cells at 0.5 uM after 12 hrs by Annexin-V-FITC/propidium iodide staining based flow cytometry (reference value: 0.35%); type: functional
HeLa [20] = experiment: Cell cycle arrest in human HeLa cells assessed as accumulation at G2/M phase after 24 hrs by propidium iodide staining based flow cytometry; type: functional
HeLa [21] = experiment: Cell cycle arrest in human HeLa cells assessed as accumulation at G1 phase at 0.5 uM after 12 hrs by propidium iodide staining based flow cytometry (reference value: 79.19%); type: functional
HeLa [22] = experiment: Cell cycle arrest in human HeLa cells assessed as accumulation at S phase at 0.5 uM after 36 hrs by propidium iodide staining based flow cytometry (reference value: 33.78%); type: functional
HeLa [23] = experiment: Induction of apoptosis in human HeLa cells assessed as late apoptotic cells at 0.5 uM after 24 hrs by Annexin-V-FITC/propidium iodide staining based flow cytometry (reference value: 2.64%); type: functional
HeLa [24] = experiment: Cell cycle arrest in human HeLa cells assessed as accumulation at S phase at 0.1 uM after 24 hrs by propidium iodide staining based flow cytometry (reference value: 49.41%); type: functional
HeLa [25] = experiment: Induction of apoptosis in human HeLa cells at 0.5 uM by Annexin-V-FITC/propidium iodide staining based flow cytometry; type: functional, cell-based; conditions: TDE = time-dependent effect
HeLa [26] = experiment: Induction of apoptosis in human HeLa cells assessed as viable cells at 0.8 uM after 24 hrs by Annexin-V-FITC/propidium iodide staining based flow cytometry (reference value: 94.4%); type: functional; conditions: read-out: Activity

Q: Which results are given for `CCn1cc(C(=O)N2CCN(S(=O)(=O)c3c(C(C)C)cc(C(C)C)cc3C(C)C)CC2)c2ccccc21`?
A: Activity (HeLa [1]): 12.8%; Activity (HeLa [2]): 1.19%; Activity (HeLa [3]): 21.7%; Activity (HeLa [4]): 18.43%; CC50 at 24 h [5]: 424 µM; Activity (HeLa [6]): 51.71%; Activity (HeLa [7]): 51.97%; Activity (HeLa [8]): Tde; Activity (HeLa [9]): 25.3%; Activity (HeLa [10]): 0.141%; Activity (HeLa [11]): 54.97%; Activity (HeLa [12]): 22.09%; viability at 0.2 µM (HeLa [13]): 71%; inhibition (HeLa [14]): Active; viability at 0.1 µM (HeLa [15]): 85.1%; Activity (HeLa [16]): 0.581%; IC50 (MCF7): 0.35 µM; IC50 (HeLa [17]): 0.24 µM; viability at 0.5 µM (HeLa [18]): 72.7%; Activity (HeLa [19]): 0.03%; Activity (HeLa [20]): Dose-dependent effect; Activity (HeLa [21]): 42.86%; Activity (HeLa [22]): 53.25%; Activity (HeLa [23]): 6.84%; Activity (HeLa [24]): 49.47%; Activity (HeLa [25]): Tde; viability at 0.8 µM (HeLa [26]): 44%
